Reference: ChEMBL document CHEMBL1201862, “PubChem BioAssay data set” (2004)
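Step 1: Grow cells in 96-well plates. Step 2: Expose to compound for 48 hours at 5 concentrations. Step 3: Interpolate endpoints linearly; if unreached, use highest concentration. GI50 is the concentration that inhibits growth by half.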 Activity calls are given as the source filed them. Cut-off read from the data, not from the text of the source: active = GI50 up to about 1.1 µM and inactive = higher.

Experiments:
Assay in all cases: DTP human tumour cell line panel, 48 h
HT-29 = tested on: HT-29
OVCAR-8 = tested on: OVCAR-8
SN12C = tested on: SN12C
SNB-19 = tested on: SNB-19
SR = tested on: SR
MDA-MB-231 = tested on: MDA-MB-231
NCI-H522 = tested on: NCI-H522
HCC 2998 = tested on: HCC 2998
HL-60 = tested on: HL-60
PC-3 = tested on: PC-3
OVCAR-5 = tested on: OVCAR-5
KM12 = tested on: KM12
HCT-15 = tested on: HCT-15
IGROV-1 = tested on: IGROV-1
NCI-H23 = tested on: NCI-H23
BT-549 = tested on: BT-549
RXF 393 = tested on: RXF 393
UACC-257 = tested on: UACC-257
RPMI-8226 = tested on: RPMI-8226
SF-268 = tested on: SF-268
SK-OV-3 = tested on: SK-OV-3
SF-295 = tested on: SF-295
TK-10 = tested on: TK-10
CCRF-CEM = tested on: CCRF-CEM
OVCAR-4 = tested on: OVCAR-4
UACC-62 = tested on: UACC-62
UO-31 = tested on: UO-31
SK-MEL-2 = tested on: SK-MEL-2
NCI/ADR-RES = tested on: NCI/ADR-RES
A498 = tested on: A498
HOP-62 = tested on: HOP-62
SK-MEL-28 = tested on: SK-MEL-28
SF-539 = tested on: SF-539
A549 = tested on: A549
Hs-578T = tested on: Hs-578T
SW-620 = tested on: SW-620
MOLT-4 = tested on: MOLT-4
ACHN = tested on: ACHN
COLO 205 = tested on: COLO 205
786-0 = tested on: 786-0
LOX IMVI = tested on: LOX IMVI
EKVX = tested on: EKVX
MDA-N = tested on: MDA-N
T47D = tested on: T47D
DU-145 = tested on: DU-145
Malme-3M = tested on: Malme-3M
K562 = tested on: K562
SK-MEL-5 = tested on: SK-MEL-5
NCI-H460 = tested on: NCI-H460
OVCAR-3 = tested on: OVCAR-3
CAKI-1 = tested on: CAKI-1
HCT-116 = tested on: HCT-116
M14 = tested on: M14
MDA-MB-435 = tested on: MDA-MB-435
MCF7 = tested on: MCF7
U-251 = tested on: U-251
NCI-H226 = tested on: NCI-H226
SNB-75 = tested on: SNB-75
HOP-92 = tested on: HOP-92

CC[C@]12C=CCN3CC[C@@]4(c5cc(Br)c(OC)cc5N(C)[C@H]4[C@@](O)(C(=O)N[C@@H](Cc4ccc(O)cc4)C(=O)OC)[C@@H]1O)[C@@H]32
GI50 (HT-29): 14.6 µM (inactive) | GI50 (OVCAR-8): 24.9 µM (inactive) | GI50 (SN12C): 16.5 µM (inactive) | GI50 (SNB-19): > 100 µM (inactive) | GI50 (SR): 13.8 µM (inactive) | GI50 (MDA-MB-231): 11 µM (inactive) | GI50 (NCI-H522): 17.7 µM (inactive) | GI50 (HCC 2998): 25.5 µM (inactive) | GI50 (HL-60): 26.7 µM (inactive) | GI50 (PC-3): 39 µM (inactive) | GI50 (OVCAR-5): 45.5 µM (inactive) | GI50 (KM12): 11.3 µM (inactive) | GI50 (HCT-15): 23.3 µM | GI50 (IGROV-1): 19.5 µM (inactive) | GI50 (NCI-H23): 52.4 µM (inactive) | GI50 (BT-549): 20.7 µM (inactive) | GI50 (RXF 393): 17.6 µM (inactive) | GI50 (UACC-257): 16.3 µM (inactive) | GI50 (RPMI-8226): 15.6 µM (inactive) | GI50 (SF-268): 13.6 µM (inactive) | GI50 (SK-OV-3): 74.5 µM (inactive) | GI50 (SF-295): 19.3 µM (inactive) | GI50 (TK-10): 22.6 µM (inactive) | GI50 (CCRF-CEM): 21.6 µM (inactive) | GI50 (OVCAR-4): 14.7 µM (inactive) | GI50 (UACC-62): 17.6 µM (inactive) | GI50 (UO-31): 27.2 µM (inactive) | GI50 (SK-MEL-2): 20.1 µM (inactive) | GI50 (NCI/ADR-RES): 20.7 µM (inactive) | GI50 (A498): 18.1 µM (inactive) | GI50 (HOP-62): 46.5 µM (inactive) | GI50 (SK-MEL-28): > 100 µM (inactive) | GI50 (SF-539): 19.7 µM (inactive) | GI50 (A549): 25.7 µM (inactive) | GI50 (Hs-578T): 20.7 µM (inactive) | GI50 (SW-620): 32.9 µM (inactive) | GI50 (MOLT-4): 14.2 µM (inactive) | GI50 (ACHN): 27.6 µM (inactive) | GI50 (COLO 205): 18.6 µM (inactive) | GI50 (786-0): 49.9 µM (inactive) | GI50 (LOX IMVI): 14.8 µM (inactive) | GI50 (EKVX): 29.2 µM (inactive) | GI50 (MDA-N): 20 µM (inactive) | GI50 (T47D): 57.7 µM (inactive) | GI50 (DU-145): 55.1 µM (inactive) | GI50 (Malme-3M): 14.1 µM (inactive) | GI50 (K562): 43 µM (inactive) | GI50 (SK-MEL-5): 17.6 µM (inactive) | GI50 (NCI-H460): 18.2 µM (inactive) | GI50 (OVCAR-3): 25.6 µM (inactive) | GI50 (CAKI-1): 18.7 µM (inactive) | GI50 (HCT-116): 34.8 µM (inactive) | GI50 (M14): 28 µM (inactive) | GI50 (MDA-MB-435): 16.4 µM (inactive) | GI50 (MCF7): 23.1 µM (inactive) | GI50 (U-251): 14.6 µM (inactive)

O=C(c1cccs1)N(C(=S)OCc1ccccn1)c1ccccc1
GI50 (HT-29): 33.2 µM (inactive) | GI50 (OVCAR-8): 56.5 µM (inactive) | GI50 (SN12C): 50.7 µM (inactive) | GI50 (SNB-19): > 100 µM (inactive) | GI50 (SR): > 100 µM (inactive) | GI50 (MDA-MB-231): 59.7 µM (inactive) | GI50 (HL-60): 38.4 µM (inactive) | GI50 (PC-3): 47.8 µM (inactive) | GI50 (OVCAR-5): 23.4 µM (inactive) | GI50 (KM12): 84.9 µM (inactive) | GI50 (HCT-15): 53.2 µM | GI50 (IGROV-1): 28.8 µM (inactive) | GI50 (NCI-H23): 84.9 µM (inactive) | GI50 (BT-549): 47.3 µM (inactive) | GI50 (RXF 393): 31 µM (inactive) | GI50 (UACC-257): > 100 µM (inactive) | GI50 (RPMI-8226): 37.4 µM (inactive) | GI50 (SF-268): > 100 µM (inactive) | GI50 (SK-OV-3): > 100 µM (inactive) | GI50 (SF-295): 40.4 µM (inactive) | GI50 (TK-10): > 100 µM (inactive) | GI50 (CCRF-CEM): 40.6 µM (inactive) | GI50 (UACC-62): > 100 µM (inactive) | GI50 (UO-31): 32.6 µM (inactive) | GI50 (SK-MEL-2): > 100 µM (inactive) | GI50 (NCI/ADR-RES): 35.2 µM (inactive) | GI50 (A498): 75.5 µM (inactive) | GI50 (SK-MEL-28): > 100 µM (inactive) | GI50 (SF-539): 38.5 µM (inactive) | GI50 (Hs-578T): 38.3 µM (inactive) | GI50 (SW-620): 92 µM (inactive) | GI50 (MOLT-4): 45.7 µM (inactive) | GI50 (ACHN): 50.6 µM (inactive) | GI50 (COLO 205): 88.1 µM (inactive) | GI50 (786-0): > 100 µM (inactive) | GI50 (LOX IMVI): 96.4 µM (inactive) | GI50 (EKVX): 14.4 µM (inactive) | GI50 (MDA-N): > 100 µM (inactive) | GI50 (T47D): 53.8 µM (inactive) | GI50 (DU-145): 69.2 µM (inactive) | GI50 (Malme-3M): 18.6 µM (inactive) | GI50 (NCI-H226): 32.9 µM (inactive) | GI50 (K562): 42 µM (inactive) | GI50 (SK-MEL-5): 51.2 µM (inactive) | GI50 (NCI-H460): 70.3 µM (inactive) | GI50 (OVCAR-3): 76.9 µM (inactive) | GI50 (CAKI-1): > 100 µM (inactive) | GI50 (HCT-116): 63.5 µM (inactive) | GI50 (M14): > 100 µM (inactive) | GI50 (MDA-MB-435): > 100 µM (inactive) | GI50 (MCF7): 68.4 µM (inactive) | GI50 (U-251): 92.5 µM (inactive)

C=C1CC(COc2ccc3ccc(=O)oc3c2)(c2ccccc2)OC1=O (stereo not given)
GI50 (HT-29): 0.627 µM (active) | GI50 (OVCAR-8): 2.21 µM (inactive) | GI50 (SN12C): 2.73 µM (inactive) | GI50 (SNB-19): 15 µM (inactive) | GI50 (SR): 0.867 µM (active) | GI50 (MDA-MB-231): 2.52 µM (inactive) | GI50 (NCI-H522): 0.501 µM (active) | GI50 (HCC 2998): 1.27 µM (inactive) | GI50 (HL-60): 0.0803 µM (active) | GI50 (PC-3): 2.69 µM (inactive) | GI50 (OVCAR-5): 5.87 µM (inactive) | GI50 (KM12): 3.27 µM (inactive) | GI50 (HCT-15): 1.87 µM | GI50 (IGROV-1): 1.64 µM (inactive) | GI50 (NCI-H23): 0.912 µM (active) | GI50 (BT-549): 1.54 µM (inactive) | GI50 (UACC-257): 1.71 µM (inactive) | GI50 (RPMI-8226): 0.143 µM (active) | GI50 (SF-268): 3.27 µM (inactive) | GI50 (SK-OV-3): 5.02 µM (inactive) | GI50 (SF-295): 6.78 µM (inactive) | GI50 (TK-10): 1.54 µM (inactive) | GI50 (SNB-75): 5.92 µM (inactive) | GI50 (CCRF-CEM): 0.233 µM (active) | GI50 (OVCAR-4): 1.49 µM (inactive) | GI50 (UACC-62): 1.45 µM (inactive) | GI50 (UO-31): 5.19 µM (inactive) | GI50 (SK-MEL-2): 1.53 µM (inactive) | GI50 (NCI/ADR-RES): 2.48 µM (inactive) | GI50 (HOP-62): 11.6 µM (inactive) | GI50 (SK-MEL-28): 2.3 µM (inactive) | GI50 (SF-539): 3.46 µM (inactive) | GI50 (A549): 10.6 µM (inactive) | GI50 (Hs-578T): 4.03 µM (inactive) | GI50 (SW-620): 0.316 µM (active) | GI50 (MOLT-4): 1.25 µM (inactive) | GI50 (ACHN): 2.01 µM (inactive) | GI50 (COLO 205): 0.625 µM (active) | GI50 (786-0): 1.46 µM (inactive) | GI50 (LOX IMVI): 0.942 µM (active) | GI50 (EKVX): 7.5 µM (inactive) | GI50 (MDA-N): 1.11 µM (active) | GI50 (T47D): 1.87 µM (inactive) | GI50 (DU-145): 2.77 µM (inactive) | GI50 (Malme-3M): 2.33 µM (inactive) | GI50 (NCI-H226): 5.3 µM (inactive) | GI50 (K562): 0.266 µM (active) | GI50 (SK-MEL-5): 1.47 µM (inactive) | GI50 (HOP-92): 0.685 µM (active) | GI50 (NCI-H460): 10.5 µM (inactive) | GI50 (OVCAR-3): 1.61 µM (inactive) | GI50 (CAKI-1): 0.885 µM (active) | GI50 (HCT-116): 0.597 µM (active) | GI50 (M14): 1.18 µM (inactive) | GI50 (MDA-MB-435): 2.61 µM (inactive) | GI50 (MCF7): 1.26 µM (inactive) | GI50 (U-251): 8.93 µM (inactive)
